The record followed here is patent US9963467B2, “Boronic acid derivatives and therapeutic uses thereof” (Rempex Pharmaceuticals, Inc., priority 2014, dated 2018).

Molecules are shown by their SMILES.

For data set [1], the system named is ec308 (SHV-5). Briefly: Aztreonam potentiation (MPC@4), ec308. The format is cell-based. The note with it: read-out: Aztreonam MIC ec308.
The test system of data set [2] is KP1010 (SHV-12). The data set can be described thus: Aztreonam potentiation (MPC@4), KP1010. The format is cell-based. Conditions: read-out: Aztreonam MIC KP1010.
Data set [3] has as its system ECL1002. Briefly: Aztreonam potentiation (MPC@4), ECL1002. The format is cell-based.
The subject of data set [4] is strains of various bacteria that are resistant to aztreonam due to expression of various β-lactamases. Briefly: Aztreonam MIC of test strains. The format is cell-based. The note with it: read-out: Aztreonam MICs of test strains; across the test strains.
Data set [5] deals with KP1005 (CTX-M-14). The data set can be described thus: Aztreonam potentiation (MPC@4), KP1005. The format is cell-based.
The subject of data set [6] is ec302 (TEM-10). The data set can be described thus: Aztreonam potentiation (MPC@4), ec302. The format is cell-based.
For data set [7], the system named is KP1004 (KPC-2). The data set can be described thus: Aztreonam potentiation (MPC@4), KP1004. The format is cell-based.
In data set [8] the test system is KP1009 (CTX-M-15). The data set can be described thus: organism not typed. The format is cell-based. The note with it: read-out: Aztreonam MIC KP1009.
For data set [9], the system named is EC1010 (CMY-6). The data set can be described thus: organism not typed. The format is cell-based.
Data set [10] concerns KP1009 (CTX-M-15). The data set can be described thus: Tigemonam potentiation (MPC@4), KP1009. The format is cell-based. Conditions: BLI with tigemonam at 4 μg/mL.
The nature of data set [11]: Monomer content of pH adjusted aqueous solutions (LC-UV). The format is physicochemical. Conditions: 1 mg/mL aqueous salt solution, pH adjusted to 7.6 to 8, LC-UV. The gist of the method:
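Aqueous solutions at 1.00, 10.0 or 100 mg/mL (active fraction) brought to pH 7.6–8 with acid or base, compound fully dissolved. Injected within half an hour of preparation onto C18 reversed-phase LC (0.1% TFA water / 0.085% TFA methanol gradient); UV detection at 220, 254 and 300 nm.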

Data set [12] relates to EC1010 (CMY-6). The data set can be described thus: Tigemonam potentiation (MPC@4), EC1010. The note with it: BLI with tigemonam at 4 μg/mL. The format is cell-based.
The target of the next data set is SHV-12 (Klebsiella pneumoniae, UniProt P0AD64, E235K/G234S/L31Q). The data set can be described thus: Ki, nitrocefin cleavage by purified enzyme, SHV-12. The note with it: nitrocefin reporter substrate; read-out: Ki (SHV-12, NCF). The format is biochemical. A digest of the protocol: (§1)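 Purified enzyme was preincubated with a range of inhibitor concentrations in reaction buffer for 10 min at room temperature. Nitrocefin was then added and its cleavage followed at 490 nm every 10 sec for 10 min.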

Data set [13] can be described thus: Intravenous pharmacokinetics. The format is in vivo. The note with it: rat, plasma; rats, 20 mg/kg, intravenous infusion over 0.5 hours; read-out: Free Cl (converted). How it is done: Rats (n=3 per compound) were administered by a single infusion. Intravenous doses were infused over 0.5 hours via an indwelling femoral vein cannula. […] (˜0.3 mL) samples were collected from each rat at designated time points up to 24 hours. Blood samples were centrifuged within 5 min of collection at 12000 g for 5 min to obtain plasma. The plasma samples were stored at −80° C. until analyzed. Data were analyzed using WinNonlin. The doses of all compounds tested were 20 mg/kg.

The subject of data set [14] is KP1004 (KPC-2). Briefly: Biapenem potentiation (MPC@1), KP1004. The note with it: BLI with biapenem at 1 μg/mL.
The next data set deals with Pa AmpC (Pseudomonas aeruginosa, UniProt P24735). Briefly: Ki, nitrocefin cleavage by purified enzyme, Pa AmpC. The format is biochemical. Conditions: nitrocefin reporter substrate; read-out: Ki (Pa AmpC, NCF). The gist of the method:
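Purified enzyme was preincubated with inhibitor at a range of concentrations in reaction buffer for 10 min at room temperature. Nitrocefin was then added as reporter substrate and its cleavage followed at 490 nm every 10 sec over 10 min; Ki was derived spectrophotometrically.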

Data set [15] relates to ec302 (TEM-10). Briefly: Tigemonam potentiation (MPC@4), ec302. The format is cell-based.
For the next data set, the target named is KPC-2 (Klebsiella pneumoniae, UniProt Q9F663). The data set can be described thus: Ki, nitrocefin cleavage by purified enzyme, KPC-2. The format is biochemical. Conditions: nitrocefin reporter substrate; read-out: Ki (KPC-2, NCF). A digest of the protocol: as §1
For data set [16], the system named is ec308 (SHV-5). Briefly: Tigemonam potentiation (MPC@4), ec308. The format is cell-based.
The next data set concerns the target P99 (Enterobacter cloacae, UniProt P05364). The data set can be described thus: Ki, nitrocefin cleavage by purified enzyme, P99. The format is biochemical. The note with it: nitrocefin reporter substrate; read-out: Ki (P99, NCF). A digest of the protocol: as §1
The subject of data set [17] is KP1005 (CTX-M-14). Briefly: Tigemonam potentiation (MPC@4), KP1005. The format is cell-based. Conditions: BLI with tigemonam at 4 μg/mL.
The subject of another data set is KP1086 (OXA-48). The data set can be described thus: Biapenem potentiation (MPC@1), KP1086. Conditions: BLI with biapenem at 1 μg/mL.
Data set [18] concerns KP1010 (SHV-12). The data set can be described thus: Tigemonam potentiation (MPC@4), KP1010. The format is cell-based.
For the next data set, the target named is OXA-48 (Klebsiella pneumoniae, UniProt Q6XEC0). The data set can be described thus: Ki, nitrocefin cleavage by purified enzyme, OXA-48. The format is biochemical. The note with it: nitrocefin reporter substrate; read-out: Ki (OXA-48, NCF). A digest of the protocol:
as §1

Data set [19] has as its system ECL1002. The data set can be described thus: Tigemonam potentiation (MPC@4), ECL1002. The format is cell-based. Conditions: BLI with tigemonam at 4 μg/mL.
The target of a further data set is CTX-M-14 (Escherichia coli, UniProt Q9L5C7). Briefly: Ki, nitrocefin cleavage by purified enzyme, CTX-M-14. The format is biochemical. The note with it: nitrocefin reporter substrate; read-out: Ki (CTX-M-14, NCF). The gist of the method: as §1
Chain of CTX-M-14 (Q9L5C7 29-291): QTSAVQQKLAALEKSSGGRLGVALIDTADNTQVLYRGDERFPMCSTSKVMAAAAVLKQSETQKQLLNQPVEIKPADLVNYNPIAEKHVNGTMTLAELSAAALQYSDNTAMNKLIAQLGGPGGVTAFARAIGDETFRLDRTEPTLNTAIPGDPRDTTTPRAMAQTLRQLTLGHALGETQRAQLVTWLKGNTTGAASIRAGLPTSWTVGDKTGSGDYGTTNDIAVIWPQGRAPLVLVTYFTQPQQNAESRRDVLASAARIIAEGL

Chain of P99 (P05364 21-381): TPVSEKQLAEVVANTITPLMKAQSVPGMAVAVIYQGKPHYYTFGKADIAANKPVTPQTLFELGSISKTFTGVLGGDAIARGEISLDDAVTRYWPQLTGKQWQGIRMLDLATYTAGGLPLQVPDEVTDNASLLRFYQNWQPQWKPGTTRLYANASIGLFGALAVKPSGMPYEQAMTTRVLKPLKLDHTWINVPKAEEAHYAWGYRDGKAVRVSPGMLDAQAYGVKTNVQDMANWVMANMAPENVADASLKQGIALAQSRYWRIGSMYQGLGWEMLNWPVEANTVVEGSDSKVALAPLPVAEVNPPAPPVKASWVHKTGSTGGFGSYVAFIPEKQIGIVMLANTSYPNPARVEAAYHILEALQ
Chain of SHV-12 (P0AD64 22-286 L31Q/G234S/E235K): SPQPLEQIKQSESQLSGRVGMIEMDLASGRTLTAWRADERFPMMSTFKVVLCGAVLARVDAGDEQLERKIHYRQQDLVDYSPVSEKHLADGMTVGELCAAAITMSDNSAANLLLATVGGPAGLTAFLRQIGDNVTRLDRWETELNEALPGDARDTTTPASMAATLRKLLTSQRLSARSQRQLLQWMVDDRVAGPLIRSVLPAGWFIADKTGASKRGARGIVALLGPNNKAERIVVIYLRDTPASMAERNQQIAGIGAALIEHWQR
Chain of Pa AmpC (P24735 27-397): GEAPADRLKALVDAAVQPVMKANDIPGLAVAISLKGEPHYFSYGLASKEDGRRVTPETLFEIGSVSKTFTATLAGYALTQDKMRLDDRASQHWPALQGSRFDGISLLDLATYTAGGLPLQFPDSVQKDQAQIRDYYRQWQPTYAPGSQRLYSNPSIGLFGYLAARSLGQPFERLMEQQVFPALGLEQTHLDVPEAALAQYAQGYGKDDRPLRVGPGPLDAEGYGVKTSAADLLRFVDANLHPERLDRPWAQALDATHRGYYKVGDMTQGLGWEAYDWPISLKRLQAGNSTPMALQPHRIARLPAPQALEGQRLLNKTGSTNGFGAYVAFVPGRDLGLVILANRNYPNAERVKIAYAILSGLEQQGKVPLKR
Chain of KPC-2 (Q9F663 25-293, looked up, species assumed): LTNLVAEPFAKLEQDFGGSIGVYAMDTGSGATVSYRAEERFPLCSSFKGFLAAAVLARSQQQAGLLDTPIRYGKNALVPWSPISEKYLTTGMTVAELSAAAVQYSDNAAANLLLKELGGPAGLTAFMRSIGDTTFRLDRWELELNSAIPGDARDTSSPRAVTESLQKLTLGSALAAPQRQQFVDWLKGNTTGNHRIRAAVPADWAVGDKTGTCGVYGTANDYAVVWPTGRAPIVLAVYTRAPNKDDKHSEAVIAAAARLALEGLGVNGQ
Chain of OXA-48 (Q6XEC0 23-265, looked up, species assumed): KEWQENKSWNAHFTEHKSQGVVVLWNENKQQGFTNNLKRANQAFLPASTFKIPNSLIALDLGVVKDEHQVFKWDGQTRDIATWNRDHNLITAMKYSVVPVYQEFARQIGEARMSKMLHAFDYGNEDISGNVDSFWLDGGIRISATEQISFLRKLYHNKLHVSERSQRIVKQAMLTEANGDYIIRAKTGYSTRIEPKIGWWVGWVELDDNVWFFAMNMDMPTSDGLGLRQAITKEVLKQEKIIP

`C[C@H]1[C@H](NC(=O)/C(=N\OC(C)(C)C(=O)O)c2csc(N)n2)C(=O)N1S(=O)(=O)O` [Aztreonam, reference compound]: the MIC in the data set on ec308 (SHV-5) [1] is over 10 µg/mL; with KP1010 (SHV-12) [2], over 10 µg/mL; in the data set with ECL1002 [3] (read-out: Aztreonam MIC ECL1002), over 10 µg/mL; in data set [4], at least 64 µg/mL; in the data set on KP1005 (CTX-M-14) [5] (read-out: Aztreonam MIC KP1005) it was over 10 µg/mL; in the data set with ec302 (TEM-10) [6] (read-out: Aztreonam MIC ec302) it was over 10 µg/mL. For the same compound, the MIC in the data set with KP1004 (KPC-2) [7] (read-out: Aztreonam MIC KP1004), in the data set on KP1009 (CTX-M-15) [8] and in the data set on EC1010 (CMY-6) [9] (read-out: Aztreonam MIC EC1010) was over 10 µg/mL each time.
On to `O=C(CSC(F)F)N[C@H]1Cc2ccc(F)c(C(=O)O)c2OB1O` [Compound 3, (R)-3-(2-(difluoromethylthio)acetamido)-7-fluoro-2-hydroxy-3,4-dihydro-2H-benzo[e][1,2]oxaborinine-8-carboxylic acid], for which, in the data set with KP1009 (CTX-M-15) [10], the “TIG MPC4 CTX-M-15 KP1009” value was “X (MIC of less than 1 μg/mL)”. Further, the “% Monomer in 1 mg/mL salt solution” value in data set [11] was determined as 99.8%. Besides, the “TIG MPC4 CMY-6 EC1010” value with EC1010 (CMY-6) [12] is “X (MIC of less than 1 μg/mL)”. Also, the Ki (as a rule, the dissociation constant of the complex between target and ligand, obtained from inhibition or displacement) at SHV-12 was under 1 nM; on Pa AmpC, over 10 nM; at KPC-2 it was over 10 nM; at P99, over 10 nM; at OXA-48, 1 to 10 nM; on CTX-M-14 it was under 1 nM. For the same compound, in data set [13], the clearance is 13 mL/min/kg. Besides, in the data set on ECL1002 [3] (BLI with aztreonam at 4 μg/mL), the “AZT MPC4 ECL1002” value is “Y (MIC of 1 μg/mL to 10 μg/mL)”. Further, the “BPM MPC1 KP1004 KPC-2” value with KP1004 (KPC-2) [14] is listed as “X (MIC of less than 1 μg/mL)”. In addition, in the data set on ec302 (TEM-10) [15], the “TIG MPC4 TEM-10 ec302” value was “Y (key: X: MIC of less than 1 ng/mL; Y: MIC of 1 μg/mL to 10 μg/mL; Z: MIC of greater than 10 μg/mL)”. Besides, the “TIG MPC4 SHV-5 ec308” value in the data set on ec308 (SHV-5) [16] is “X (key: X: MIC of less than 1 μg/mL; Y: MIC of 1 μg/mL to 10 μg/mL; Z: MIC of greater than 10 μg/mL)”. In the data set with KP1005 (CTX-M-14) [5] (BLI with aztreonam at 4 μg/mL), the “AZT MPC4 CTX-M-14 KP1005” value was “Y (MIC of 1 μg/mL to 10 μg/mL)”. Further, the “AZT MPC4 TEM-10 ec302” value with ec302 (TEM-10) [6] (BLI with aztreonam at 4 μg/mL) is given as “X (MIC of less than 1 ng/mL)”. The “AZT MPC4 KPC-2 KP1004” value in the data set on KP1004 (KPC-2) [7] (BLI with aztreonam at 4 μg/mL) is reported as “Y (MIC of 1 μg/mL to 10 μg/mL)”. In the data set on KP1005 (CTX-M-14) [17], the “TIG MPC4 CTX-M-14 KP1005” value was “X (MIC of less than 1 μg/mL)”. The “AZT MPC4 CMY-6 EC1010” value with EC1010 (CMY-6) [9] is reported as “Y (key: X: MIC of less than 1 ng/mL; Y: MIC of 1 μg/mL to 10 μg/mL; Z: MIC of greater than 10 μg/mL)”. In addition, the “BPM MPC1 OXA-48 KP1086” value in the data set with KP1086 (OXA-48) is listed as “Z (MIC of greater than 10 μg/mL)”. Besides, the “TIG MPC4 SHV-12 KP1010” value in the data set on KP1010 (SHV-12) [18] is recorded as “X (key: X: MIC of less than 1 μg/mL; Y: MIC of 1 μg/mL to 10 μg/mL; Z: MIC of greater than 10 μg/mL)”. The “TIG MPC4 ECL1002” value in the data set on ECL1002 [19] is given as “Y (MIC of 1 μg/mL to 10 μg/mL)”.
